Laboratory results taken from PubChem BioAssay AID1963968 (Molecular Pharmacology Branch, DTP, NCI, 2024).

Test system: 945468-187-T-J3-PDC spheroids with HUVEC/MSC, viability
Test: Anticancer human tumor 945468-187-T-J3-PDC patient-derived rectal carcinoma cell line growth inhibition [PI3K]
Conditions: for IC50: curve of first compound; for viability, T/C: stronger effect = lower value
Outline: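 Complex 3D spheroids (cancer cells + endothelial HUVEC + mesenchymal stem cells); drug pairs of targeted agent x inavolisib/alpelisib/duvelisib/copanlisib; half-log series from ~Cmax, max 10 microM if Cmax unknown; endpoint viability.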

[1] = second compound 0.0316 µM, first compound 0.0316 µM
[2] = second compound 0.0316 µM, first compound 0.1 µM
[3] = second compound 0.0316 µM, first compound 0.316 µM
[4] = second compound 0.0316 µM, first compound 1 µM
[5] = second compound 0.0316 µM, first compound 3.16 µM
[6] = second compound 0.0316 µM, first compound 10 µM
[7] = second compound 0.1 µM, first compound 0.0316 µM
[8] = second compound 0.1 µM, first compound 0.1 µM
[9] = second compound 0.1 µM, first compound 0.316 µM
[10] = second compound 0.1 µM, first compound 1 µM
[11] = second compound 0.1 µM, first compound 3.16 µM
[12] = second compound 0.1 µM, first compound 10 µM
[13] = second compound 0.316 µM, first compound 0.0316 µM
[14] = second compound 0.316 µM, first compound 0.1 µM
[15] = second compound 0.316 µM, first compound 0.316 µM
[16] = second compound 0.316 µM, first compound 1 µM
[17] = second compound 0.316 µM, first compound 3.16 µM
[18] = second compound 0.316 µM, first compound 10 µM
[19] = second compound 1 µM, first compound 0.0316 µM
[20] = second compound 1 µM, first compound 0.1 µM
[21] = second compound 1 µM, first compound 0.316 µM
[22] = second compound 1 µM, first compound 1 µM
[23] = second compound 1 µM, first compound 3.16 µM
[24] = second compound 1 µM, first compound 10 µM
[25] = second compound 3.16 µM, first compound 0.0316 µM
[26] = second compound 3.16 µM, first compound 0.1 µM
[27] = second compound 3.16 µM, first compound 0.316 µM
[28] = second compound 3.16 µM, first compound 1 µM
[29] = second compound 3.16 µM, first compound 3.16 µM
[30] = second compound 3.16 µM, first compound 10 µM
[31] = second compound 10 µM, first compound 0.0316 µM
[32] = second compound 10 µM, first compound 0.1 µM
[33] = second compound 10 µM, first compound 0.316 µM
[34] = second compound 10 µM, first compound 1 µM
[35] = second compound 10 µM, first compound 3.16 µM
[36] = second compound 10 µM, first compound 10 µM
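Note: spheroids exposed to agents for 7 days before viability read.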
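Throughout, for viability, T/C: 100% = DMSO vehicle control viability.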

**Q.** For `CC(Cn1ccc(-c2ccc(C#N)c(Cl)c2)n1)NC(=O)c1cc(C(C)O)[nH]n1` (stereo unspecified) + CC(Nc1ncnc2nc[nH]c12)c1cc2cccc(Cl)c2c(=O)n1-c1ccccc1, which IC50 (second compound 0.0316 µM) is on record?
**A.** > 10 µM

**Q.** And the IC50 (second compound 0.1 µM)?
**A.** > 10 µM

**Q.** And the IC50 (second compound 0.316 µM)?
**A.** > 10 µM

**Q.** And the IC50 (second compound 1 µM)?
**A.** > 10 µM

**Q.** And the IC50 (second compound 3.16 µM)?
**A.** > 10 µM

**Q.** And the IC50 (second compound 10 µM)?
**A.** > 10 µM

**Q.** And the viability, T/C [1]?
**A.** 93.4%

**Q.** And the viability, T/C [2]?
**A.** 104%

**Q.** And the viability, T/C [3]?
**A.** 126%

**Q.** What about the viability, T/C [4] of the same compound?
**A.** 91.3%

**Q.** And the viability, T/C [5]?
**A.** 125%

**Q.** What about the viability, T/C [6] of the same compound?
**A.** 94%

**Q.** What about the viability, T/C [7] of the same compound?
**A.** 91.1%

**Q.** What about the viability, T/C [8] of the same compound?
**A.** 95.5%

**Q.** And the viability, T/C [9]?
**A.** 89.5%

**Q.** What about the viability, T/C [10] of the same compound?
**A.** 91.4%

**Q.** And the viability, T/C [11]?
**A.** 114%

**Q.** What about the viability, T/C [12] of the same compound?
**A.** 105%

**Q.** What about the viability, T/C [13] of the same compound?
**A.** 95.5%

**Q.** What about the viability, T/C [14] of the same compound?
**A.** 100%

**Q.** And the viability, T/C [15]?
**A.** 118%

**Q.** What about the viability, T/C [16] of the same compound?
**A.** 97.9%

**Q.** What about the viability, T/C [17] of the same compound?
**A.** 101%

**Q.** What about the viability, T/C [18] of the same compound?
**A.** 106%

**Q.** What about the viability, T/C [19] of the same compound?
**A.** 87.8%

**Q.** What about the viability, T/C [20] of the same compound?
**A.** 108%

**Q.** And the viability, T/C [21]?
**A.** 98.1%

**Q.** And the viability, T/C [22]?
**A.** 93%

**Q.** And the viability, T/C [23]?
**A.** 104%

**Q.** And the viability, T/C [24]?
**A.** 94.8%

**Q.** What about the viability, T/C [25] of the same compound?
**A.** 94.8%

**Q.** What about the viability, T/C [26] of the same compound?
**A.** 102%

**Q.** What about the viability, T/C [27] of the same compound?
**A.** 96.5%

**Q.** And the viability, T/C [28]?
**A.** 112%

**Q.** What about the viability, T/C [29] of the same compound?
**A.** 113%

**Q.** And the viability, T/C [30]?
**A.** 110%

**Q.** What about the viability, T/C [31] of the same compound?
**A.** 122%

**Q.** And the viability, T/C [32]?
**A.** 99.1%

**Q.** And the viability, T/C [33]?
**A.** 98.2%

**Q.** What about the viability, T/C [34] of the same compound?
**A.** 96.7%

**Q.** And the viability, T/C [35]?
**A.** 104%

**Q.** And the viability, T/C [36]?
**A.** 91.2%

**Q.** Which IC50 (second compound 0.0316 µM) does the source give for `CC1(C)CCC(Nc2ncc(C(F)(F)F)c(-c3c[nH]c4c(P(C)(C)=O)c(C#N)ccc34)n2)CN1` (stereo unspecified) + CC(Nc1ncnc2nc[nH]c12)c1cc2cccc(Cl)c2c(=O)n1-c1ccccc1 here?
**A.** 4.49 µM

**Q.** And the IC50 (second compound 0.1 µM)?
**A.** 4.55 µM

**Q.** And the IC50 (second compound 0.316 µM)?
**A.** 4.74 µM

**Q.** What about the IC50 (second compound 1 µM) of the same compound?
**A.** 4.69 µM

**Q.** What about the IC50 (second compound 3.16 µM) of the same compound?
**A.** 4.74 µM

**Q.** What about the IC50 (second compound 10 µM) of the same compound?
**A.** 4.74 µM

**Q.** And the viability, T/C [1]?
**A.** 65.5%

**Q.** And the viability, T/C [2]?
**A.** 64.1%

**Q.** And the viability, T/C [3]?
**A.** 58.2%

**Q.** What about the viability, T/C [4] of the same compound?
**A.** 68.1%

**Q.** What about the viability, T/C [5] of the same compound?
**A.** 75.1%

**Q.** What about the viability, T/C [6] of the same compound?
**A.** 12.9%

**Q.** And the viability, T/C [7]?
**A.** 67.7%

**Q.** And the viability, T/C [8]?
**A.** 59.8%

**Q.** What about the viability, T/C [9] of the same compound?
**A.** 54.9%

**Q.** And the viability, T/C [10]?
**A.** 72%

**Q.** And the viability, T/C [11]?
**A.** 73%

**Q.** And the viability, T/C [12]?
**A.** 16.6%

**Q.** And the viability, T/C [13]?
**A.** 68.2%

**Q.** And the viability, T/C [14]?
**A.** 67.4%

**Q.** And the viability, T/C [15]?
**A.** 55.8%

**Q.** And the viability, T/C [16]?
**A.** 66.2%

**Q.** And the viability, T/C [17]?
**A.** 86.7%

**Q.** What about the viability, T/C [18] of the same compound?
**A.** 15.2%

**Q.** What about the viability, T/C [19] of the same compound?
**A.** 79.9%

**Q.** And the viability, T/C [20]?
**A.** 62.4%

**Q.** And the viability, T/C [21]?
**A.** 56.6%

**Q.** And the viability, T/C [22]?
**A.** 67.5%

**Q.** What about the viability, T/C [23] of the same compound?
**A.** 78.9%

**Q.** What about the viability, T/C [24] of the same compound?
**A.** 13.4%

**Q.** And the viability, T/C [25]?
**A.** 73.8%

**Q.** What about the viability, T/C [26] of the same compound?
**A.** 64.3%

**Q.** And the viability, T/C [27]?
**A.** 59%

**Q.** What about the viability, T/C [28] of the same compound?
**A.** 66.6%

**Q.** What about the viability, T/C [29] of the same compound?
**A.** 79.4%

**Q.** What about the viability, T/C [30] of the same compound?
**A.** 15.7%

**Q.** And the viability, T/C [31]?
**A.** 78.9%

**Q.** And the viability, T/C [32]?
**A.** 66.1%

**Q.** What about the viability, T/C [33] of the same compound?
**A.** 77.9%

**Q.** What about the viability, T/C [34] of the same compound?
**A.** 58.9%

**Q.** And the viability, T/C [35]?
**A.** 81.4%

**Q.** And the viability, T/C [36]?
**A.** 7.98%

**Q.** With `Cn1nccc1Nc1nccc(-c2ccn(C(CO)c3ccc(Cl)c(F)c3)c(=O)c2)n1` (stereo unspecified) + CC(Nc1ncnc2nc[nH]c12)c1cc2cccc(Cl)c2c(=O)n1-c1ccccc1 as the compound, how does the IC50 (second compound 0.0316 µM) read?
**A.** > 10 µM

**Q.** What about the IC50 (second compound 0.1 µM) of the same compound?
**A.** > 10 µM

**Q.** What about the IC50 (second compound 0.316 µM) of the same compound?
**A.** > 10 µM

**Q.** What about the IC50 (second compound 1 µM) of the same compound?
**A.** > 10 µM

**Q.** What about the IC50 (second compound 3.16 µM) of the same compound?
**A.** > 10 µM

**Q.** And the IC50 (second compound 10 µM)?
**A.** > 10 µM

**Q.** What about the viability, T/C [1] of the same compound?
**A.** 126%

**Q.** And the viability, T/C [2]?
**A.** 108%

**Q.** And the viability, T/C [3]?
**A.** 117%

**Q.** What about the viability, T/C [4] of the same compound?
**A.** 107%

**Q.** What about the viability, T/C [5] of the same compound?
**A.** 113%

**Q.** And the viability, T/C [6]?
**A.** 132%

**Q.** And the viability, T/C [7]?
**A.** 94.3%

**Q.** What about the viability, T/C [8] of the same compound?
**A.** 101%

**Q.** And the viability, T/C [9]?
**A.** 113%

**Q.** And the viability, T/C [10]?
**A.** 116%

**Q.** And the viability, T/C [11]?
**A.** 117%

**Q.** And the viability, T/C [12]?
**A.** 116%

**Q.** What about the viability, T/C [13] of the same compound?
**A.** 93.3%

**Q.** And the viability, T/C [14]?
**A.** 107%

**Q.** And the viability, T/C [15]?
**A.** 111%

**Q.** What about the viability, T/C [16] of the same compound?
**A.** 114%

**Q.** And the viability, T/C [17]?
**A.** 116%

**Q.** What about the viability, T/C [18] of the same compound?
**A.** 139%

**Q.** What about the viability, T/C [19] of the same compound?
**A.** 113%

**Q.** What about the viability, T/C [20] of the same compound?
**A.** 127%

**Q.** What about the viability, T/C [21] of the same compound?
**A.** 102%

**Q.** What about the viability, T/C [22] of the same compound?
**A.** 121%

**Q.** What about the viability, T/C [23] of the same compound?
**A.** 118%

**Q.** And the viability, T/C [24]?
**A.** 136%

**Q.** What about the viability, T/C [25] of the same compound?
**A.** 108%

**Q.** And the viability, T/C [26]?
**A.** 109%

**Q.** And the viability, T/C [27]?
**A.** 106%

**Q.** What about the viability, T/C [28] of the same compound?
**A.** 120%

**Q.** And the viability, T/C [29]?
**A.** 116%

**Q.** And the viability, T/C [30]?
**A.** 122%

**Q.** What about the viability, T/C [31] of the same compound?
**A.** 104%

**Q.** What about the viability, T/C [32] of the same compound?
**A.** 108%

**Q.** And the viability, T/C [33]?
**A.** 111%

**Q.** And the viability, T/C [34]?
**A.** 123%

**Q.** What about the viability, T/C [35] of the same compound?
**A.** 108%

**Q.** What about the viability, T/C [36] of the same compound?
**A.** 123%
